In PubChem BioAssay AID2060903 (Molecular Pharmacology Branch, DTP, NCI, 2025):

Tested on: 377384-186-R-J1-PDC complex spheroid viability
Assay: Anticancer human tumor 377384-186-R-J1-PDC patient-derived pancreatic carcinoma cell line growth inhibition [RAS]
Conditions: for IC50: curve of first compound; for viability, T/C: stronger effect = lower value; active = viability on the fitted dose curve at most 10% of control; inactive = the rest
Method in brief: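 Tumour cells grown as complex spheroids with HUVEC endothelial cells and mesenchymal stem cells, treated with RAS pathway inhibitor combinations. Each agent spans half-log steps from near clinical Cmax, or 10 microM where Cmax is unknown.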

[1] = second compound 0.00316 µM, first compound 0.0316 µM
[2] = second compound 0.00316 µM, first compound 0.1 µM
[3] = second compound 0.00316 µM, first compound 0.316 µM
[4] = second compound 0.00316 µM, first compound 1 µM
[5] = second compound 0.00316 µM, first compound 3.16 µM
[6] = second compound 0.00316 µM, first compound 10 µM
[7] = second compound 0.01 µM, first compound 0.0316 µM
[8] = second compound 0.01 µM, first compound 0.1 µM
[9] = second compound 0.01 µM, first compound 0.316 µM
[10] = second compound 0.01 µM, first compound 1 µM
[11] = second compound 0.01 µM, first compound 3.16 µM
[12] = second compound 0.01 µM, first compound 10 µM
[13] = second compound 0.0316 µM, first compound 0.0316 µM
[14] = second compound 0.0316 µM, first compound 0.1 µM
[15] = second compound 0.0316 µM, first compound 0.316 µM
[16] = second compound 0.0316 µM, first compound 1 µM
[17] = second compound 0.0316 µM, first compound 3.16 µM
[18] = second compound 0.0316 µM, first compound 10 µM
[19] = second compound 0.1 µM, first compound 0.0316 µM
[20] = second compound 0.1 µM, first compound 0.1 µM
[21] = second compound 0.1 µM, first compound 0.316 µM
[22] = second compound 0.1 µM, first compound 1 µM
[23] = second compound 0.1 µM, first compound 3.16 µM
[24] = second compound 0.1 µM, first compound 10 µM
[25] = second compound 0.316 µM, first compound 0.0316 µM
[26] = second compound 0.316 µM, first compound 0.1 µM
[27] = second compound 0.316 µM, first compound 0.316 µM
[28] = second compound 0.316 µM, first compound 1 µM
[29] = second compound 0.316 µM, first compound 3.16 µM
[30] = second compound 0.316 µM, first compound 10 µM
[31] = second compound 1 µM, first compound 0.0316 µM
[32] = second compound 1 µM, first compound 0.1 µM
[33] = second compound 1 µM, first compound 0.316 µM
[34] = second compound 1 µM, first compound 1 µM
[35] = second compound 1 µM, first compound 3.16 µM
[36] = second compound 1 µM, first compound 10 µM
[37] = second compound 0.000949 µM, first compound 0.0316 µM
[38] = second compound 0.000949 µM, first compound 0.1 µM
[39] = second compound 0.000949 µM, first compound 0.316 µM
[40] = second compound 0.000949 µM, first compound 1 µM
[41] = second compound 0.003 µM, first compound 0.0316 µM
[42] = second compound 0.003 µM, first compound 0.1 µM
[43] = second compound 0.003 µM, first compound 0.316 µM
[44] = second compound 0.003 µM, first compound 1 µM
[45] = second compound 0.00949 µM, first compound 0.0316 µM
[46] = second compound 0.00949 µM, first compound 0.1 µM
[47] = second compound 0.00949 µM, first compound 0.316 µM
[48] = second compound 0.00949 µM, first compound 1 µM
[49] = second compound 0.03 µM, first compound 0.0316 µM
[50] = second compound 0.03 µM, first compound 0.1 µM
[51] = second compound 0.03 µM, first compound 0.316 µM
[52] = second compound 0.03 µM, first compound 1 µM
[53] = second compound 0.0949 µM, first compound 0.0316 µM
[54] = second compound 0.0949 µM, first compound 0.1 µM
[55] = second compound 0.0949 µM, first compound 0.316 µM
[56] = second compound 0.0949 µM, first compound 1 µM
[57] = second compound 0.3 µM, first compound 0.0316 µM
[58] = second compound 0.3 µM, first compound 0.1 µM
[59] = second compound 0.3 µM, first compound 0.316 µM
[60] = second compound 0.3 µM, first compound 1 µM
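Note: spheroids exposed to compounds for seven days before readout.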

CCC(CC)c1cc(NC2CCC(N)C2)n2nccc2n1 (stereo not drawn) + C=CC(=O)N1CCN(c2nc(OCC3CCCN3C)nc3c(F)c(-c4nc(N)cc(C)c4C(F)(F)F)c(Cl)cc23)C(C)C1
1580 nM: IC50 (second compound 0.00316 µM)
inactive: viability, T/C [1] 98% | viability, T/C [2] 100% | viability, T/C [3] 109% | viability, T/C [4] 80.4% | viability, T/C [7] 106% | viability, T/C [8] 100% | viability, T/C [9] 110% | viability, T/C [10] 86.5% | viability, T/C [13] 107% | viability, T/C [14] 88.6% | viability, T/C [15] 124% | viability, T/C [16] 89.4% | viability, T/C [19] 101% | viability, T/C [20] 97.9% | viability, T/C [21] 112% | viability, T/C [22] 91.3% | viability, T/C [25] 101% | viability, T/C [26] 102% | viability, T/C [27] 101% | viability, T/C [28] 90.3% | viability, T/C [31] 94.4% | viability, T/C [32] 95.8% | viability, T/C [33] 96.8% | viability, T/C [34] 94.6%
active: viability, T/C [5] 2.73% | viability, T/C [6] 4.78% | viability, T/C [11] 2.18% | viability, T/C [12] 3.83% | viability, T/C [17] 2.68% | viability, T/C [18] 4.52% | viability, T/C [23] 2.71% | viability, T/C [24] 5.16% | viability, T/C [29] 3.2% | viability, T/C [30] 6.46% | viability, T/C [35] 3.19% | viability, T/C [36] 6.78%
1650 nM: IC50 (second compound 0.01 µM)
1770 nM: IC50 (second compound 1 µM)
1720 nM: IC50 (second compound 0.1 µM) | IC50 (second compound 0.316 µM)
1700 nM: IC50 (second compound 0.0316 µM)

CC(C)NCC(C(=O)N1CCN(c2ncnc3c2C(C)CC3O)CC1)c1ccc(Cl)cc1 (stereo not drawn) + CCn1c(-c2cc(N3CCN(C)CC3)cnc2C(C)OC)c2c3cc(ccc31)-c1csc(n1)CC(NC(=O)C1CC1C)C(=O)N1CCCC(N1)C(=O)OCC(C)(C)C2
126 nM: IC50 (second compound 0.000949 µM)
active: viability, T/C (second compound 0.003 µM, first compound 10 µM) 8.24% | viability, T/C [45] 5.67% | viability, T/C [46] 5.95% | viability, T/C [47] 5.17% | viability, T/C [48] 7.15% | viability, T/C (second compound 0.00949 µM, first compound 3.16 µM) 6.27% | viability, T/C (second compound 0.00949 µM, first compound 10 µM) 3.27% | viability, T/C [49] 3.25% | viability, T/C [50] 2.3% | viability, T/C [51] 2.13% | viability, T/C [52] 1.68% | viability, T/C (second compound 0.03 µM, first compound 3.16 µM) 1.07% | viability, T/C (second compound 0.03 µM, first compound 10 µM) 0.92% | viability, T/C [53] 1.84% | viability, T/C [54] 1.86% | viability, T/C [55] 1.46% | viability, T/C [56] 1.22% | viability, T/C (second compound 0.0949 µM, first compound 3.16 µM) 0.74% | viability, T/C (second compound 0.0949 µM, first compound 10 µM) 0.17% | viability, T/C [57] 2% | viability, T/C [58] 2.02% | viability, T/C [59] 1.61% | viability, T/C [60] 0.77% | viability, T/C (second compound 0.3 µM, first compound 3.16 µM) 0.64% | viability, T/C (second compound 0.3 µM, first compound 10 µM) 0.3%
inactive: viability, T/C [37] 60.4% | viability, T/C [38] 54.6% | viability, T/C [39] 38.6% | viability, T/C [40] 34.1% | viability, T/C (second compound 0.000949 µM, first compound 3.16 µM) 34.1% | viability, T/C (second compound 0.000949 µM, first compound 10 µM) 19% | viability, T/C [41] 19.6% | viability, T/C [42] 21.2% | viability, T/C [43] 17.9% | viability, T/C [44] 16.4% | viability, T/C (second compound 0.003 µM, first compound 3.16 µM) 12.7%
< 31.6 nM: IC50 (second compound 0.003 µM) | IC50 (second compound 0.00949 µM) | IC50 (second compound 0.03 µM) | IC50 (second compound 0.0949 µM) | IC50 (second compound 0.3 µM)

C[C@@H](NC(=O)c1ncnc(N)c1Cl)c1ncc(C(=O)Nc2cc(C(F)(F)F)c(Cl)cn2)s1 + C=CC(=O)N1CCN(c2nc(OCC3CCCN3C)nc3c(F)c(-c4nc(N)cc(C)c4C(F)(F)F)c(Cl)cc23)C(C)C1
> 10000 nM: IC50 (second compound 0.00316 µM) | IC50 (second compound 0.01 µM) | IC50 (second compound 0.0316 µM) | IC50 (second compound 0.1 µM) | IC50 (second compound 0.316 µM) | IC50 (second compound 1 µM)
inactive: viability, T/C [1] 90% | viability, T/C [2] 85.2% | viability, T/C [3] 83.8% | viability, T/C [4] 108% | viability, T/C [5] 120% | viability, T/C [6] 122% | viability, T/C [7] 98.5% | viability, T/C [8] 86.3% | viability, T/C [9] 102% | viability, T/C [10] 118% | viability, T/C [11] 122% | viability, T/C [12] 131% | viability, T/C [13] 98.4% | viability, T/C [14] 87.8% | viability, T/C [15] 101% | viability, T/C [16] 118% | viability, T/C [17] 116% | viability, T/C [18] 130% | viability, T/C [19] 84% | viability, T/C [20] 103% | viability, T/C [21] 92.3% | viability, T/C [22] 115% | viability, T/C [23] 120% | viability, T/C [24] 124% | viability, T/C [25] 98.3% | viability, T/C [26] 87.1% | viability, T/C [27] 119% | viability, T/C [28] 115% | viability, T/C [29] 143% | viability, T/C [30] 134% | viability, T/C [31] 93.9% | viability, T/C [32] 109% | viability, T/C [33] 110% | viability, T/C [34] 115% | viability, T/C [35] 122% | viability, T/C [36] 118%

Nc1ccn(C2OC(CO)C(O)C2(F)F)c(=O)n1 (stereo not drawn) + CCn1c(-c2cc(N3CCN(C)CC3)cnc2C(C)OC)c2c3cc(ccc31)-c1csc(n1)CC(NC(=O)C1CC1C)C(=O)N1CCCC(N1)C(=O)OCC(C)(C)C2
active: viability, T/C [37] 4.12% | viability, T/C [38] 3.96% | viability, T/C [39] 3.39% | viability, T/C [40] 3.44% | viability, T/C (second compound 0.003 µM, first compound 0.01 µM) 8.01% | viability, T/C [41] 5.2% | viability, T/C [42] 2.62% | viability, T/C [43] 3.06% | viability, T/C [44] 2.55% | viability, T/C (second compound 0.00949 µM, first compound 0.00316 µM) 4.2% | viability, T/C (second compound 0.00949 µM, first compound 0.01 µM) 3.81% | viability, T/C [45] 3.02% | viability, T/C [46] 2.45% | viability, T/C [47] 2.8% | viability, T/C [48] 2.63% | viability, T/C (second compound 0.03 µM, first compound 0.00316 µM) 2.29% | viability, T/C (second compound 0.03 µM, first compound 0.01 µM) 3.33% | viability, T/C [49] 2.15% | viability, T/C [50] 2.11% | viability, T/C [51] 3.23% | viability, T/C [52] 2.21% | viability, T/C (second compound 0.0949 µM, first compound 0.00316 µM) 2.1% | viability, T/C (second compound 0.0949 µM, first compound 0.01 µM) 2.03% | viability, T/C [53] 1.97% | viability, T/C [54] 1.8% | viability, T/C [55] 1.92% | viability, T/C [56] 1.8% | viability, T/C (second compound 0.3 µM, first compound 0.00316 µM) 1.98% | viability, T/C (second compound 0.3 µM, first compound 0.01 µM) 2.16% | viability, T/C [57] 1.73% | viability, T/C [58] 1.47% | viability, T/C [59] 1.95% | viability, T/C [60] 2.17%
inactive: viability, T/C (second compound 0.000949 µM, first compound 0.00316 µM) 41.1% | viability, T/C (second compound 0.000949 µM, first compound 0.01 µM) 18.4% | viability, T/C (second compound 0.003 µM, first compound 0.00316 µM) 19%
< 3.16 nM: IC50 (second compound 0.000949 µM) | IC50 (second compound 0.003 µM) | IC50 (second compound 0.00949 µM) | IC50 (second compound 0.03 µM) | IC50 (second compound 0.0949 µM) | IC50 (second compound 0.3 µM)
